Active and inactive are the calls of the source.
Tests used:
Jurkat = test: antigen receptor-induced NF-kB inhibitors, dose response, Jurkat, luciferase reporter, luminescence, B- and T-cell (AID 489004); format: functional, cell-based; conditions: Homo sapiens;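 also: NF-kB luciferase reporter Jurkat cells stimulated with PMA plus ionomycin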
[1] = cytotoxicity in HEK-293T NF-kB-Luc cells, dose response, cytotoxicity control for B/T-cell NF-kB inhibitor project, cell-based, uHTS hits (AID 489019); format: functional;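 also: IC50 reflects cytotoxicity as loss of cell viability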
INS1 = test: beta cell apoptosis inhibitors, cytokine rescue, dose response, luminescence, retest (AID 449756); format: functional, cell-based; conditions: Rattus norvegicus;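 also: cell death triggered by IL-1 beta plus TNF-alpha plus IFN-gamma mixture; protective hits raise ATP signal compared with cytokine alone wells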
[2] = Shn3 3'UTR reporter inhibitors, dose response, cell-based, Clone20 osteoblasts, firefly luciferase, cherry-picked (AID 624132); format: functional;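 also: firefly luciferase luminescence from reporter carrying the Shn3 3'UTR in osteoblasts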
[3] = control 3'UTR Renilla luciferase suppression, dose response, counter-screen for Shn3 inhibitor project, cell-based, Clone20-Shn3RL, cherry-picked (AID 624133); format: functional
Galanin receptor type 3 = Galanin receptor type 3 (Homo sapiens, UniProt O60755); test: Fluorescence-based cell-based primary high throughput dose response assay to identify antagonists of the Galanin Receptor 3 (GalR3).; format: functional
cells [4] = format: functional, cell-based; conditions: HEK-CNG
[5] = biological target: T1, COUP transcription factor 2 (Homo sapiens, UniProt P24468); test: Luminescence-based cell-based high throughput dose response assay to identify inhibitors of COUP-TFII (NR2F2).; format: functional;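 also: HEK293 cells transiently cotransfected with COUP-TFII expression vector and reporter; luciferase reporter luminescence driven by COUP-TFII from the pX2-168 reporter plasmid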
T1 sequence (P24468 whole entry): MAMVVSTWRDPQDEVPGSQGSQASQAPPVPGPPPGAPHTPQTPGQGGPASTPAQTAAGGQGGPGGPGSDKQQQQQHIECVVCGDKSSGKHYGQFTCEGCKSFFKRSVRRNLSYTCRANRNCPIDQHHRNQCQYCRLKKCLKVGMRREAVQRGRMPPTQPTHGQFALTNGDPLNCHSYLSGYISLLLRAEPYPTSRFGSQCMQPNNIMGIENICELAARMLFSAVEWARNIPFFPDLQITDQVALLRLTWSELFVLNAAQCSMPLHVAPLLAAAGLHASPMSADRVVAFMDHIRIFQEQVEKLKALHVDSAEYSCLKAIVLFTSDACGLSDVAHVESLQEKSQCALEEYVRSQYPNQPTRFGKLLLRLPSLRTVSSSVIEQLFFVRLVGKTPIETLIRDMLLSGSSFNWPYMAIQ

[6] = NIH-3T3 fibroblast cytotoxicity, dose response, cytotoxicity control, cell-based, fluorescence, Alamar Blue, secondary assay (AID 2327); format: functional;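 also: NIH-3T3 mouse fibroblasts cultured with fluconazole at 8 µg/mL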
Galanin receptor type 2 = Galanin receptor type 2 (Homo sapiens, UniProt O43603); test: Dose Response cell-based high-throughput screening assay to identify antagonists of galanin receptor 2 (GALR2). [Related pubchem assays: 828, 866 ]; format: functional
[7] = C. albicans growth with fluconazole, confirmation, fluorescence, retest (AID 2467); format: functional, cell-based
[8] = THP-1 cell cytotoxicity, dose response, cytotoxicity control for non-replicating M. tuberculosis project (AID 489025); format: functional
Beta-galactosidase = Beta-galactosidase (Escherichia coli, UniProt Q8VNN2); test: beta-galactosidase enzyme inhibitors and activators, dose response, artefact control for CCR6 antagonist project, biochemical, E. coli enzyme, set 3 (AID 504712); format: functional
[9] = biological target: T2, Microphthalmia-associated transcription factor (Homo sapiens, UniProt O75030); test: TRPM1 promoter luciferase signal decrease, dose response, MITF inhibitor project, cell-based, SK-MEL-5, cherry-picked, set 3 (AID 493073); format: functional
T2 sequence (O75030 whole entry): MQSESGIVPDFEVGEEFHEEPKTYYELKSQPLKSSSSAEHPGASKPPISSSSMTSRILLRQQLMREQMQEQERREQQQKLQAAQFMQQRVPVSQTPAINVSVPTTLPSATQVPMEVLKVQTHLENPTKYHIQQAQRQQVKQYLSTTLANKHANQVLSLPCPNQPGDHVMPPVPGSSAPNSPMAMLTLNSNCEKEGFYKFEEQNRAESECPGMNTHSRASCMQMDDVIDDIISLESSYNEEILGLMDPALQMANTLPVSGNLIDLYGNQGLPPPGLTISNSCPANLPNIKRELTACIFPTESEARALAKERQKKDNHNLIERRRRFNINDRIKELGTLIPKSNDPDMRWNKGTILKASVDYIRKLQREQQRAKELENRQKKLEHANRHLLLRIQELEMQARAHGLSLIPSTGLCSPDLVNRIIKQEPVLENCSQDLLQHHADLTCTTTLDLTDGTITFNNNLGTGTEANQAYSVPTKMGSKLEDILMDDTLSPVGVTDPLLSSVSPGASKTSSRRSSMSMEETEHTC

cells [10] = format: functional
[11] = biological target: Heat shock protein HSP 90-alpha (Homo sapiens, UniProt P07900); format: functional, organism-based
A-375 [12] = test: MITF: Counter assay: A375 proliferation Measured in Cell-Based System Using Plate Reader - 2084-03_Inhibitor_Dose_DryPowder_Activity. [Related pubchem assays (depositor defined):AID488944]; format: functional; conditions: Homo sapiens
A-375 [13] = test: A375 melanoma cell viability reduction, dose response, counter-screen for MITF modulator project, cherry-pick samples, set 2 (AID 540335); format: functional, cell-based; conditions: Homo sapiens
NS3 = NS3 (Hepatitis C virus, UniProt A3EZJ3); test: PubChem AID 2173; set-up: species or system Hepacivirus hominis
[14] = Late-stage probe development counterscreen for inhibitors of the Hepatitis C Virus non-structural protein 3 helicase (NS3): luminescence-based cell-based dose response assay to determine whether compounds that inhibit replication of HCV RNA replicon are cytotoxic. [Related pubchem assays (depositor defined):AID1800, AID1830, AID1845, AID1943, AID1945, AID2172, AID2173, AID2474, AID2476]; format: functional
HeLa = test: HeLa cell cytotoxicity, dose response, cytotoxicity control for MITF activator project, CellTiter-Glo luminescence, cherry-pick samples (AID 540259); format: functional, cell-based; conditions: Homo sapiens
[15] = biological target: T3, Rac GTPase-activating protein 1 (Homo sapiens, UniProt Q9H0H5); test: MgcRacGAP GTPase-activating activity inhibitors, confirmation, biochemical, ADP Hunter fluorescence, primary and confirmatory (AID 624330); format: functional
T3 sequence (Q9H0H5 whole entry): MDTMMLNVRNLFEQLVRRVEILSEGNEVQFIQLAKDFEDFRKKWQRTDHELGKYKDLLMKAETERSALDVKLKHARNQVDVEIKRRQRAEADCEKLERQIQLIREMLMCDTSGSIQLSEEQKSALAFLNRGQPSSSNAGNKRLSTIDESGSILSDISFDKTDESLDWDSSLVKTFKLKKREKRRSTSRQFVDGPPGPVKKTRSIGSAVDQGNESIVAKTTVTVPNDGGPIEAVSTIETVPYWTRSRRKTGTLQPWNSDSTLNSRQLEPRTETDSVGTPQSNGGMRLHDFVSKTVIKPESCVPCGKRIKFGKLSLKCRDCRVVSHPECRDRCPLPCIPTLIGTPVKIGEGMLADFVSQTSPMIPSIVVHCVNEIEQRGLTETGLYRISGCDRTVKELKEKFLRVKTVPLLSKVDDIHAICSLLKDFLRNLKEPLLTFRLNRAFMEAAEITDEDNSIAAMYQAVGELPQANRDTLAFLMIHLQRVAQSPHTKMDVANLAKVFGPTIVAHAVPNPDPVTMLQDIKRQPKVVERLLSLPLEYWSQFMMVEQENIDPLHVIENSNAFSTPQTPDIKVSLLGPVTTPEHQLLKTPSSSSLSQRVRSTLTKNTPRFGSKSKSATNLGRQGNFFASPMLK

Galanin receptor type 3, sequence (O60755 whole entry): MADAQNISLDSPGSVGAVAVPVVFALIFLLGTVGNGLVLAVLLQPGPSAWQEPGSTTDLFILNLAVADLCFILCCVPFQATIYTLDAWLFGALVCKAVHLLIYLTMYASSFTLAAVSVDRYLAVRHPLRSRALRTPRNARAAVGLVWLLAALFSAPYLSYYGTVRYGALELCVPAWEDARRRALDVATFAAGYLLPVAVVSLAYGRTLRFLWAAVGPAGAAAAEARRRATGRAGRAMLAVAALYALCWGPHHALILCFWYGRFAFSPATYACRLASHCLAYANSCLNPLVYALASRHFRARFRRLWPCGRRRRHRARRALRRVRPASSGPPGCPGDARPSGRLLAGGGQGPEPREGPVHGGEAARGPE
Beta-galactosidase, sequence (Q8VNN2 whole entry): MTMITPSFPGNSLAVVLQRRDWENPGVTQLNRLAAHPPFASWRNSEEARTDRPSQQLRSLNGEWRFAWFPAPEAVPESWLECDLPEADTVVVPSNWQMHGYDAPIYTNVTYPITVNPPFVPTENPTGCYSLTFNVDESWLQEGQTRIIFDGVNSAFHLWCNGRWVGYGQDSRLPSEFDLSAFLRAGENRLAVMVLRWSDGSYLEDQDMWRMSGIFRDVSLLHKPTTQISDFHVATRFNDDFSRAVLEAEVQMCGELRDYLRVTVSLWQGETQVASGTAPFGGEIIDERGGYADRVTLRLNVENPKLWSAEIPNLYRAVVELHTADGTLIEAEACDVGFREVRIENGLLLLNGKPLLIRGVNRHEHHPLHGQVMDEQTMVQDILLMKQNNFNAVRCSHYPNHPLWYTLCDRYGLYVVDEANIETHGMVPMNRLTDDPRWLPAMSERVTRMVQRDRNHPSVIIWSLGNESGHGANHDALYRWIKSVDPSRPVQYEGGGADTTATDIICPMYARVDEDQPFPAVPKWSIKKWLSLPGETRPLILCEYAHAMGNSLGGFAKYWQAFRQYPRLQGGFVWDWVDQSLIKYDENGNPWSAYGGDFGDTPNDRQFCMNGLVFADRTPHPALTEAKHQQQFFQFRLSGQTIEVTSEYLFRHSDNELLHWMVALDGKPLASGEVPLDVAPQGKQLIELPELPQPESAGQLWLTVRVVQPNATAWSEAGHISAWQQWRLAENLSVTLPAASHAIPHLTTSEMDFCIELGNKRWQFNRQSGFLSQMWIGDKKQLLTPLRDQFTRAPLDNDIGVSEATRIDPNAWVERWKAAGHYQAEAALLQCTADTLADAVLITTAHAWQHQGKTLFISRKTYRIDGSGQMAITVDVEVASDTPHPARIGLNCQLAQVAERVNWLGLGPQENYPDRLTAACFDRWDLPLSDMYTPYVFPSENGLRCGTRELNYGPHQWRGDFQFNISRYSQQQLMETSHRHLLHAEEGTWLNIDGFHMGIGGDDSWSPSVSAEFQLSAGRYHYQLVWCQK
Galanin receptor type 2, sequence (O43603 whole entry): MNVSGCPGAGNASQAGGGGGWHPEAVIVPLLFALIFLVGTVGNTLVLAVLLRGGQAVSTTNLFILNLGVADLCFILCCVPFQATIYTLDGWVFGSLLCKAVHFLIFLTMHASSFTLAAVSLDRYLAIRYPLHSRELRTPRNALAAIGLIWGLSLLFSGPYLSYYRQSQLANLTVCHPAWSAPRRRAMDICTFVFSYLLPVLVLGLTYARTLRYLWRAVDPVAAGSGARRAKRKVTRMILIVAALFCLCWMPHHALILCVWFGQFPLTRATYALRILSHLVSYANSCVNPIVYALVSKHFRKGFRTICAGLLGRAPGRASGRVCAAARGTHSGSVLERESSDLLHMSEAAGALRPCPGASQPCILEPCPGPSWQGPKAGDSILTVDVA
NS3, sequence (A3EZJ3 whole entry): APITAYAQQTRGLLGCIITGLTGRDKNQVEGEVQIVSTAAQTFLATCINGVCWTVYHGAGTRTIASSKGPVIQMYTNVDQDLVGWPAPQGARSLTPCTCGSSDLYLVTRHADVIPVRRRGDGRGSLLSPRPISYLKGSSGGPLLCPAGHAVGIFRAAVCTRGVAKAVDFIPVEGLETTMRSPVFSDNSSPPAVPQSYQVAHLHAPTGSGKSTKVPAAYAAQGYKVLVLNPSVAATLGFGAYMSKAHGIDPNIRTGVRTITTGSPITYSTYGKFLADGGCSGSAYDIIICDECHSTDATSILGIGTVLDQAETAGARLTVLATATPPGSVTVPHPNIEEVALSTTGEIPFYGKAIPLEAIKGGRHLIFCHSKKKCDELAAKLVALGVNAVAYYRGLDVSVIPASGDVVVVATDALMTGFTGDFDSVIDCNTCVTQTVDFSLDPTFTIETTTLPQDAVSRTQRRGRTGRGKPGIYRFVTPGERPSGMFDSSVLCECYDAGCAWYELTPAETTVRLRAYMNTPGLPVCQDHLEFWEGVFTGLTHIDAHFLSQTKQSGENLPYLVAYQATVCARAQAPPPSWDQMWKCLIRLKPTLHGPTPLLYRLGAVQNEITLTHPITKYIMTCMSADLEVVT

COc1ccc(CCNc2ncnc3sccc23)cc1OC
IC50 (Jurkat): > 80 µM (inactive)
IC50 [1]: > 80 µM (inactive)
AC50 (INS1): 0.71 µM (active)
AC50 [2]: < 0.26 µM (active)
AC50 [3]: 1.5 µM (active)
IC50 (Galanin receptor type 3): 0.371 µM (active)
EC50 (cells [4]): > 29.9 µM (inactive)
IC50 [5]: 1.97 µM (active)

CCOC(=O)c1cc([N+](=O)[O-])c([N+](=O)[O-])cc1NC(C)=O
EC50 [6]: 4.65 µM (inconclusive)
IC50 (Galanin receptor type 2): 10.3 µM (not active)
EC50 [7]: 2.01 µM (active)
CC50 [8]: 13.1 µM (active)
IC50 (Beta-galactosidase): > 66.6 µM (inactive)
AC50 [9]: 24.2 µM (active)
IC50 (cells [10]): 9.64 µM (active)
AC50 [11]: 2.59 µM (active)
AC50 (A-375 [12]): > 35 µM (active)
AC50 (A-375 [13]): > 35 µM (active)

CCOc1cccc(C2C(C(=O)c3ccc(C)o3)=C(O)C(=O)N2Cc2ccccc2)c1 (configuration not stated)
IC50 (NS3): 4.29 µM (active)
CC50 [14]: > 100 µM (inactive)

O=C(Nc1ccc(O)cc1)c1cc2ccccc2c(=O)s1
AC50 (HeLa): > 350 µM (inactive)
IC50 [15]: 23.3 µM (active)

Source: ChEMBL document CHEMBL1201862, “PubChem BioAssay data set” (2004)
